{"source": "patent US5712297A", "about": "“Piperdine compounds and their preparation and use” (Novo Nordisk A/S, priority 1989, dated 1998)", "origin": "cited, not measured here", "key": {"[1]": {"tested_on": "muscarinic receptors", "details": "known; in words; cited from earlier work"}, "[2]": {"tested_on": "muscarinic receptors", "details": "in words; cited from earlier work"}, "[3]": {"details": "in words; cited from earlier work"}, "[4]": {"details": "in words; cited from earlier work", "remark": "listed apart in the source"}, "[5]": {"target": "muscarinic receptors in the CNS", "details": "cited from earlier work"}}, "note": "Like-named read-outs stand apart in the source and are kept apart here."}
{"smiles": "CC(=O)OC1CN2CCC1CC2", "note": "(centres unmarked) [3-acetoxy-quinuclidine]", "values": [{"measurement": "muscarinic agonist or antagonist activity", "setting": "[1]", "result": "muscarinic agonist"}, {"measurement": "separation between central and peripheral muscarinic effects", "setting": "[2]", "result": "the same as indicated for arecoline"}, {"measurement": "biological half life", "setting": "[3]", "result": "the same as indicated for arecoline"}, {"measurement": "toxicity", "setting": "[4]", "result": "the same as indicated for arecoline"}]}
{"smiles": "C[N+](C)(C)CC#CCN1CCCC1=O", "note": "[Compound 3H-Oxo, ^3 H-Oxotremorine-M]", "values": [{"measurement": "Kd", "setting": "[5]; high affinity site, read-out: affinity of 3H-Oxo, first (high affinity) site", "result": 1, "unit": "nM"}, {"measurement": "Kd", "setting": "[5]; medium affinity site, read-out: affinity of 3H-Oxo, second (medium affinity) site", "result": 20, "unit": "nM"}, {"measurement": "Kd", "setting": "[5]; third site, not determined under the present experimental conditions, read-out: affinity of 3H-Oxo, third site", "result": 3000, "unit": "nM"}]}
{"smiles": "COC(=O)C1=CCCN(C)C1", "note": "[arecoline, methyl 1-methyl-1,2,5,6-tetrahydropyridine-3-carboxylate]", "values": [{"measurement": "muscarinic agonist or antagonist activity", "setting": "[1]", "result": "cholinergic agonist"}, {"measurement": "separation between central and peripheral muscarinic effects", "setting": "[2]", "result": "small separation between central and peripheral muscarinic effects"}, {"measurement": "biological half life", "setting": "[3]", "result": "very short biological half life"}, {"measurement": "toxicity", "setting": "[4]", "result": "rather toxic compound"}]}
